Reference: patent US20240238243A1, “METHODS AND COMPOSITIONS FOR TREATMENT OF HEART FAILURE WITH PRESERVED EJECTION FRACTION” (Northwestern University, priority 2023, published 2024)

Assays:
[1] = test system: protein O-GlcNAcylation; assay: Immunoblot of protein O-GlcNAcylation after intraperitoneal 5S-GlcNHex; format: in vivo, mouse
Protocol: Protein extracts from frozen mouse hearts, isolated cardiomyocytes, fibroblasts, endothelial cells, and HUVECs were prepared by lysis in ice-cold RIPA buffer (150 mM NaCl, 25 mM Tris-HCl pH 7.4, 1% NP-40, 1% sodium deoxycholate, 0.1% SDS) containing protease inhibitors. For analyses of O-GlcNAcylation, 200 μg/ml of PUGNAC (Sigma-Aldrich) was added to the RIPA buffer. Proteins were separated by sodium dodecyl sulfate-polyacrylamide gel electrophoresis (SDS-PAGE) on 8 or 10% polyacrylamide gels and transferred to nitrocellulose membranes. Membranes were incubated with the following primary antibodies overnight, before the addition of HRP-conjugated secondary antibodies: HK1 (2024, Cell Signaling Technology); HK2 (2867, Cell Signaling Technology); GAPDH (60004-1-Ig, Proteintech); FLAG (F1804, Sigma-Aldrich); alpha-tubulin (66031-1-Ig, Proteintech); ATP synthase C (ab181243, Abcam); Phospho-AMPKα (Thr172) (4188, Cell Signaling Technology); AMPKα (2603, Cell Signaling Technology); GFPT1 (14132-1-Ig, Proteintech); RPN1 (12894-1-AP, Proteintech); RPN2 (10576-1-AP, Proteintech); DDOST (14916-1-AP, Proteintech); GFP (66002-1-Ig, Proteintech), O-Linked N-Acetylglucosamine (ab2739, Abcam); OGT (11576-2-AP, Proteintech); OGA (66033-1-Ig, Proteintech). The presence of target protein was visualized using Super Surgical Western Pico ECL substrate (Pierce). Quantification of the western blotting images was done using ImageJ (NIH).

[2] = test system: C57BL/6J mice treated with HFD_L-NAME; assay: HFD_L-NAME HFpEF mouse model: echocardiography, heart weight, treadmill exercise test; format: in vivo
Source text: HKΔE1HK1/Δ^E1HK1 (ΔE1HK1) and HK1^WT/WT wild-type (WT) control mice were generated by the Northwestern Mutagenesis and Transgenic core (De Jesus et al., 2022). Briefly, guide RNAs (gRNAs) were designed to induce a double-strand break (DSB) near the 5′ ATG start codon of HK1 in exon 1, and a DNA template containing an M-DYKDDDDK (Methionine-FLAG-tag) sequence with flanking homology arms to the HK1 gene near exon 1 was introduced into fertilized zygotes and implanted into surrogate mice. […] Mouse's genetic background is C57BL/6J. Tie2-Tet-OGA mice are generous gifts from Dr. Dillmann and Dr. Makino (Makino etal., 2015). Mice were maintained in the barrier facility at Northwestern University under specific pathogen-free conditions under the Federal and University guidelines and protocols approved by Institutional Animal Care and Use Committee (IACUC) with 12 hr light and 12 hr dark cycles and received normal chow (NC). Male and female ΔE1HK1 mice were used at 8-40 weeks of age. 8-week-old ΔE1HK1 male mice were fed HFD consisting of 60% fat, 20% protein, and 20% carbohydrates for 20 weeks. To produce the HFpEF mice model, C57BL/6J and Tie2-Tet-OGA mice were fed HFD and 0.5 g/L ofN.-Nitro-L-arginine methyl ester (LNAME, Sigma-Aldrich) for 8-15 weeks. For the induction of OGA overexpression, 0.5 g/L of DOX in drinking water was administered to Tie2-Tet-OGA mice until they were sacrificed. All animal studies were approved by the IACUC at Northwestern University and were performed in accordance with guidelines from the National Institutes of Health.
Mice were anesthetized using isoflurane via a nasal cone, the chest was shaved, and the temperature of the mice was maintained at 37° C. The heart rate was continually monitored. Transthoracic echocardiography was performed using a VisualSonics Vevo 2100 system equipped with an MS400 transducer (FUJIFILM). LVEF and other indices of systolic function and thickness of LV walls were obtained from short-axis M-mode scans at the midventricular level, as indicated by the presence of papillary muscles. Apical four-chamber views were obtained for diastolic function measurements using pulsed-wave and tissue doppler imaging at the level of the mitral valve. During echocardiogram acquisition, isoflurane was maintained in 1.0-1.5% to maintain a heart rate in the range of 400-450 beats per min. All parameters were measured at least three times, and means are presented.
The exercise exhaustion test was performed as previously described (Schiattarella et al., 2019). After three days of acclimatization to treadmill exercise, an exhaustion test was performed in the experimental groups of mice. Mice ran uphill (20°) on the treadmill (Columbus Instruments) starting at a warm-up speed of 5 m/min for 3 min after which speed was increased to 14 m/min for 2 min. Every subsequent 2 min, the speed was increased by 2 m/min until the mouse was exhausted. Exhaustion was defined as the inability of the mouse to return to running within 10 s of direct contact with an electric-stimulus grid. Running time was measured and running distance calculated.

[3] = biological target: T1, OGT (Mus musculus, UniProt Q8CGY8); conditions: Liu et al., 2018; cited from earlier work
T1 sequence (Q8CGY8 2-1046 limits assumed): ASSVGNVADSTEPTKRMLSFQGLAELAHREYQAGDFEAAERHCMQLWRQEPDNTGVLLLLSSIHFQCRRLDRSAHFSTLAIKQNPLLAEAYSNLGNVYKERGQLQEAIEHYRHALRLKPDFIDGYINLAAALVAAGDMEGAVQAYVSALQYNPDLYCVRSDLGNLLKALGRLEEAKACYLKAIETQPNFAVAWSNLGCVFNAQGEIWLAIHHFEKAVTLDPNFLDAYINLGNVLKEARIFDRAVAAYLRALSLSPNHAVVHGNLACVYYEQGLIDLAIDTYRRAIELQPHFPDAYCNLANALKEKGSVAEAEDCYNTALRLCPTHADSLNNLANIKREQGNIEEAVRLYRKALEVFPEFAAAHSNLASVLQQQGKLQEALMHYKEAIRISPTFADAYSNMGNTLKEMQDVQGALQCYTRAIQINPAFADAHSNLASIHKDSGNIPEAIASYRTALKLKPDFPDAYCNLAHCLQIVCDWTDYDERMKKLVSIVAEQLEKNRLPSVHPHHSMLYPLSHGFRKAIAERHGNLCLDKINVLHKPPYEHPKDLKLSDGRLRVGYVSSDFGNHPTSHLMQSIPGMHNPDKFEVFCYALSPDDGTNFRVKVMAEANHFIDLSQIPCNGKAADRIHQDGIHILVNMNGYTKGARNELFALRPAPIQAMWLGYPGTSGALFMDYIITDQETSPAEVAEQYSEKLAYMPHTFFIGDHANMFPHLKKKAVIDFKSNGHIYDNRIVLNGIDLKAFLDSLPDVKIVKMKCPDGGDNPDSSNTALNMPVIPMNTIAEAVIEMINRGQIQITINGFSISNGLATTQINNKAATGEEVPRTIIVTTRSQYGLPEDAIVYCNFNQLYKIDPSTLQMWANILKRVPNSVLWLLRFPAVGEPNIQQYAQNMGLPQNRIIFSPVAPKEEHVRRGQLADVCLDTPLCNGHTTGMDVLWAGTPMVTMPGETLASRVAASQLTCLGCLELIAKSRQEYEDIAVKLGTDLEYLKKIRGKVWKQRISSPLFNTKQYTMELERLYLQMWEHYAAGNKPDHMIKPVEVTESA

[4] = test system: ECs from ΔE1HK1 mice; assay: Tube formation assay in isolated ECs from ΔE1HK1 mice treated with ST045849; format: cell-based, mouse; conditions: 20 μM, FIGS. 7H and 7I
Protocol: Endothelial cells (ECs) were isolated from mouse hearts as previously described (Luo et al., 2016; van Beijnum et al., 2008). Briefly, dissected mouse heart was minced and incubated with PBS containing 2% fetal bovine serum (FBS), 1 mg/ml collagenase II (Worthington), and 0.6 U/ml dispase II (Sigma-Aldrich) for 30 mins at 37° C. 7.5 μg/ml of DNase I (Sigma-Aldrich) was added to the digested hearts and additional incubation for 30 minutes was performed. The digested material was filtered through 40 μm cell strainer, then incubated with biotinylated anti-CD45 antibody (Invitrogen) and depleted of CD45 positive cells using EasySep Mouse Streptavidin (STEMCELL technologies) as described in the manufacture's protocol. […]
The formation of tube networks was assessed as described before (Das et al., 2018). […] Following an 18 hour-incubation, tube networks from each biological replicate were analyzed in at least three random fields by light microscopy. The number of branch points (junctions), segments and meshes, and total length of tubule networks (total length of branching) were quantified by Fiji software (Angiogenesis Analyzer).

[5] = test system: protein N-glycosylation in HUVEC; assay: Lectin blot with ConA-HRP of HUVEC treated with tunicamycin (dose-curve); format: cell-based, human; conditions: preliminary dose-curve experiments, FIG. 6M
Protocol: HUVECs were purchased from Lonza and grown in EGM2 media (Lonza). HEK293T cells were purchased from ATCC and cultured in DMEM (Corning) with 10% FBS (Bio-Techne Sales Corp.). All cells were maintained in a 37° C. incubator with 5% CO2 and were 70% to 90% confluent when collected for analyses.
Nitrocellulose membranes with blotted proteins were blocked with PBS containing 2% Tween 20 for 2 minutes at room temperature. They were rinsed with PBS twice, then incubated with 1 μg/ml of ConA-HRP (Sigma-Aldrich) in PBS containing 0.05% Tween 20, 1 mM CaCl2), 1 mM MnCl2, and 1 mM MgCl2 for 16 hours at room temperature avoiding exposure to the light. The presence of proteins conjugated with the lectin was visualized using Super Surgical Western Pico ECL substrate (Pierce). Quantification of the images was done using ImageJ (NIH).

[6] = test system: genes related to UPR in HUVEC; assay: mRNA levels of genes related to UPR (Xbp1s, Hspa5) in HUVEC treated with tunicamycin; format: cell-based, human; conditions: FIGS. 6N and 6O
Protocol: RNA was isolated from cells or heart samples using RNA-STAT60 (Tel-Test), and reverse transcribed with Taqman Reverse Transcription Reagents (Invitrogen) according to manufacturers' instructions. Quantification of relative gene expression was done using Fast SYBR Green Master Mix (Applied Biosystems) and run on 7500 Fast Real-Time PCR system (Applied Biosystems). The relative gene expression was determined using differences in Ct values between the gene of interest and house-keeping control genes, which are Actb, Hprt1, and/or 18S, depending on the experiment.

[7] = test system: HUVECs; assay: Tube formation assay in HUVECs treated with tunicamycin; format: cell-based, human; conditions: HUVECs, 0, 30, 50, and 100 nM, FIG. 6P
Protocol: The formation of tube networks was assessed as described before (Das et al., 2018). HUVECs and isolated ECs were seeded at 20,000 and 45,000cells per well in a 96-well plate coated with […] Matrigel (Fisher Scientific) or Cultrex (R & D Systems) reduced growth factor basement membrane matrix. The cells were treated with EGM-2 medium containing tunicamycin (Sigma-Aldrich) or ST045849 (Sigma-Aldrich) wherever mentioned. Following an 18 hour-incubation, tube networks from each biological replicate were analyzed in at least three random fields by light microscopy. The number of branch points (junctions), segments and meshes, and total length of tubule networks (total length of branching) were quantified by Fiji software (Angiogenesis Analyzer).

[8] = isolated ECs, intraperitoneal, dose dependency study, FIG. 9A
[9] = single intraperitoneal injection of 50 mg/kg, FIG. 9M
[10] = 30 mg/kg every 48 hours for 10 weeks following 5 weeks of HFD_L-NAME
[11] = 50 mg/kg for 3 weeks following 5 weeks of HFD_L-NAME
[12] = 20 and 30 mg/kg every 48 hours for 10 weeks following 5 weeks of HFD_L-NAME

With `CCCCCC(=O)N[C@H]1C(O)S[C@H](CO)[C@@H](O)[C@@H]1O` (stereo partly drawn) [5S-GlcNHex, 2-deoxy-2-N-hexanamide-5-thio-D-glucopyranoside] the “dose at which reduction of protein O-GlcNAcylation reached a plateau” value [1, 8] was 30 mg/kg, the “dose that initiated the reduction of protein O-GlcNAcylation” value [1, 8] was 20 mg/kg and the “protein O-GlcNAcylation in various organs” value ([1]; single intraperitoneal injection of 50 mg/kg, C57BL6/J mice) was “effectively curtailed”. The “time after which protein O-GlcNAcylation returns to baseline” value [1, 9] was 72 h, the “time over which protein O-GlcNAcylation is reduced” value [1, 9] was 48 h and the “protein O-GlcNAcylation in ECs in vivo” value ([1]; summary statement) was “successfully reduces”. For the same compound, the “increased E/A ratio” value ([2]; 20 mg/kg every 48 hours for 10 weeks following 5 weeks of HFD_L-NAME) was “reversed”, the “exercise capacity (treadmill test)” value [2, 10] was “significant improvement” and the “increased E/A ratio” value [2, 10] was “reversed”. For the same compound, the EF [2, 11] was “no discernable effects”, the “cardiac hypertrophy as indicated by PWTd” value [2, 11] was “ameliorated” and the “cardiac hypertrophy as indicated by heart weights” value [2, 11] was “ameliorated”. The “decreased e'” value [2, 11] was “substantially restored”, the “increased E/A” value [2, 11] was “substantially restored” and the “increased E/e'” value [2, 11] was “substantially restored”. For the same compound, the “increased LA area” value [2, 11] was “substantially restored”, the HFpEF phenotype ([2]; 50 mg/kg, FIGS. 9M-9X) was “reverses the HFpEF phenotype” and the EF [2, 12] was “no significant changes”. The “LV diameter in systole (LVDs)” value [2, 12] was “no significant changes”, the LVDd [2, 12] was “no significant changes” and the “fraction shortening (FS)” value [2, 12] was “no significant changes”. The “increased LA sizes” value [2, 12] was “tendency to decrease”, the increased heart weights [2, 12] was “tendency to decrease” and the HFpEF phenotype ([2]; summary statement) was “reversal of the HFpEF phenotype”. For the same compound, the “in vivo efficacy among OGT inhibitors” value [3] was “significant in vivo efficacy”.
For `O=C(O)C1CC(=O)N(CCC23CC4CC(CC(C4)C2)C3)C(=Nc2ccc(Cl)cc2)S1` (stereo not shown) [ST045849], the “tube formation: number of junctions” value [4] was “significant enhancement” and the “tube formation: total length of branching” value [4] was “significant enhancement”.
With tunicamycin the “concentration at which reduced protein N-glycosylation was confirmed” value [5] was 20 nM, the “concentration at which reduction of protein N-glycosylation reaches plateau” value [5] was 50 nM and the “mRNA levels of genes related to UPR” value [6] was “acted in the same manner as observed in N-glycosylation experiments”. The “tube formation (number of junctions, total length of branching)” value [7] was “no significant effects”.
